CC50 and EC50 data for two compounds are collected here from patent US20220211704A1, “INHIBITORS OF HUMAN IMMUNODEFICIENCY VIRUS REPLICATION” (VIIV HEALTHCARE UK (No. 5) LIMITED, priority 2019, published 2022).

As a reminder, the CC50 is the concentration giving 50% cytotoxicity. A higher CC50 goes with better tolerance by the cells. For orientation: EC50 means the concentration needed to bring the measured effect to its halfway point.

The nature of data set [1]: Compound cytotoxicity, XTT-based colorimetric assay. It is filed as cell-based. The note with it: human; uninfected MT2 cells, day 4, XTT. On the procedure:
Compound cytotoxicity and the corresponding CC50 values were determined using the same protocol as described in the antiviral assay except that uninfected cells were used. Cytotoxicity was assessed on day 4 in uninfected MT2 cells by using an XTT (2,3-bis[2-Methoxy-4-nitro-5-sulfophenyl]-2H-tetrazolium-5-carboxyanilide inner salt)-based colorimetric assay (Sigma-Aldrich, St Louis, Mo.).

The subject of another data set is recombinant NL4-3 virus. The data set can be described thus: HIV cell culture assay (Renilla luciferase reporter virus in MT-2 cells). In kind it is cell-based. The note with it: Human immunodeficiency virus 1, NL43, MT2. On the procedure:
HIV cell culture assay—MT-2 cells, 293T cells and the proviral DNA clone of NL4-3 virus were obtained from the NIH AIDS Research and Reference Reagent Program. MT-2 cells were propagated in RPMI 1640 media supplemented with 10% heat inactivated fetal bovine serum (FBS), […]. The 293T cells were propagated in DMEM media supplemented with 10% heat inactivated FBS, […]. A recombinant NL4-3 proviral clone, in which a section of the nef gene was replaced with the Renilla luciferase gene, was used to make the reference virus used in these studies. The recombinant virus was prepared through transfection of the recombinant NL4-3 proviral clone into 293T cells using Transit-293 Transfection Reagent from Mirus Bio LLC (Madison, Wis.). Supernatent was harvested after 2-3 days and the amount of virus present was titered in MT-2 cells using luciferase enzyme activity as a marker by measuring luciferase enzyme activity. Luciferase was quantitated using the EnduRen Live Cell Substrate from Promega (Madison, Wis.). Antiviral activities of compounds toward the recombinant virus were quantified by measuring luciferase activity in MT-2 cells infected for 4-5 days with the recombinant virus in the presence of serial dilutions of the compound. […]
(In general: In a reporter assay the amount or activity of a reporter protein is the signal.)

A value given as a limit tells only on which side of the number the result lay.

Regarding `Cn1nc(NS(C)(=O)=O)c2c(Cl)ccc(-n3c([C@H](Cc4cc(F)cc(F)c4)NC(=O)Cn4nc(C(F)F)c5c4C(F)(F)C4CC54)nc4cc(C#CC(C)(C)S(C)(=O)=O)ccc4c3=O)c21` (stereo in doubt) [Example 1, N—((S)-1-(3-(4-chloro-1-methyl-3-(methylsulfonamido)-1H-indazol-7-yl)-7-(3-methyl-3-(methylsulfonyl)but-1-yn-1-yl)-4-oxo-3,4-dihydroquinazolin-2-yl)-2-(3,5-difluorophenyl)ethyl)-2-((3bS,4aR)-3-(difluoromethyl)-5,5-difluoro-3b,4,4a,5-tetrahydro-1H-cyclopropa[3,4]cyclopenta[1,2-c]pyrazol-1-yl)acetamide], the CC50 at 4 day in data set [1] was > 500 nM. Besides, the EC50 in the data set with recombinant NL4-3 virus came to 0.035 nM.
On the same counts, the results for `CC(C)(C#Cc1ccc2c(=O)n(-c3ccc(Cl)c4c(NS(=O)(=O)C5CC5)nn(CC(F)F)c34)c([C@H](Cc3cc(F)cc(F)c3)NC(=O)Cn3nc(C(F)F)c4c3C(F)(F)C3CC43)nc2c1)S(C)(=O)=O` (stereo in doubt) [Example 2, N—((S)-1-(3-(4-chloro-3-(cyclopropanesulfonamido)-1-(2,2-difluoroethyl)-1H-indazol-7-yl)-7-(3-methyl-3-(methylsulfonyl)but-1-yn-1-yl)-4-oxo-3,4-dihydroquinazolin-2-yl)-2-(3,5-difluorophenyl)ethyl)-2-((3bS,4aR)-3-(difluoromethyl)-5,5-difluoro-3b,4,4a,5-tetrahydro-1H-cyclopropa[3,4]cyclopenta[1,2-c]pyrazol-1-yl)acetamide] are > 500 nM and 0.047 nM.
